Source: patent US7608620B2, “LPAAT-β inhibitors and uses thereof” (Cell Therapeutics, Inc., priority 2000, dated 2009)

target: T1, LPAAT-β (Homo sapiens, UniProt O15120); assay: LPAATβ colorimetric assay (DTNB detection of released CoA); assay type: biochemical; conditions: Sf9 cell membrane overexpressing LPAAT-β
T1 construct: the full-length human LPAAT-β cDNA was amplified by PCR; made in house; host or cells: Sf9 insect cells (baculovirus, pFastBac HTc); membrane fraction
T1 sequence (O15120 24-278): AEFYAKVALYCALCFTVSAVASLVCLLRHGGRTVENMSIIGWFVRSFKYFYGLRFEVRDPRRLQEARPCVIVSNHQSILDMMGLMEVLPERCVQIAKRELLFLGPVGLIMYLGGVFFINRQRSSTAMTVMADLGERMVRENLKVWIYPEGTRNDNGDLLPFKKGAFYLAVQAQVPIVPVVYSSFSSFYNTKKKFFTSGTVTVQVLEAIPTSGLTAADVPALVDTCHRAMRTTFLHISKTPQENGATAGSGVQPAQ
Method: For the construction of Baculovirus expression vectors, the full-length human LPAAT-β cDNA was amplified by PCR from the DNA template pCE9.LPAAT-β (West et al., DNA Cell Biol. 16:691-701 (1997)) using the primers 5′-TGATATCCGAAGAAGATCTTATGGAGCTGTGGCCGTGTC-3′ (olpb1F; SEQ ID NO:3) and 5′-CAGGCTCTAG ACTACTGGGC CGGCTGCAC-3′ (olpb1R; SEQ ID NO:4). The ˜870 bp fragment generated was reamplified by PCR using the primers 5° CCTACGTCG ACATGGAACAAAAATTGATATCCGAAGAAGATC-3′ (olpb2F; SEQ ID NO:5) and 5′-CAGGCTCTAG ACTACTGGGC CGGCTGCAC-3′ (olpb1R; SEQ ID NO:6). The ˜890 bp fragment generated was then cleaved with Sal I and Xba I for insertion into pFastBac™ HTc vector (Life Technologies, Gaithersberg, Md.) between the Sal I and Xba I sites for the generation of the plasmid pFB.LPAAT-β. This plasmid was then transformed into E. coli DH10Bac™ (Life Technologies, Gaithersberg, Md.) for the generation of recombinant Bacmid DNA for transfection into HighFive (Invitrogen, San Diego, Calif.) or SF9 insect cells for the production of recombinant Baculovirus stocks using the protocol described in the Bac-to-Bac® Baculovirus Expression System (Life Technologies, Gaithersberg, Md.), a eukaryotic expression system for generating recombinant baculovirus through site- specific transposition in E. coli. Viral stocks harvested from the transfected cells can then be used to infect fresh insect cells for the subsequent expression of LPAAT-β fusion protein with a poly-histidine tag and a myc-epitope near its N-terminus. The membrane fraction from these Sf9 cells would be the source of LPAAT enzyme.
For the preparation of membranes From Sf9 Cells, all steps are performed on ice or at 4° C. Sf9 cell pellets (˜10^8 cells) were thawed and resuspended in 1-2 ml of buffer A (20 mM Hepes, pH 7.5, 1 mM DTT, 1 mM EDTA, 20% w/v glycerol, 1 mM Benzamidine, 1 μg/ml soybean trypsin inhibitor (SBTI), 1 μg/ml pepstatin A) w/o DTT but with 1 mM Pefabloc. The cells were lysed by sonication using a Branson Sonifier at output=2, duty cycle=2, 10 pulses each at 10 s. with the tip of small sonicator probe submerged but not touching the walls. DTT was then added to 1 mM from a 1 M stock. The samples were centrifuged at 1500 rpm for 5 min. The low speed supernatant was saved and centrifuged (TLA 100.3 rotor, polycarbonate tubes, 2 ml/tube or 1.5 ml/tube minimum) at 100000×g for 1 hr. The high speed pellet was resuspend in Buffer A with a probe sonicator (10 pulses @ output #2 and duty cycle 20%) as a source of LPAAT enzyme.
LPAAT-β catalyzes the transfer of an acyl group from a donor such as acyl-CoA to LPA. The transfer of the acyl group from acyl-CoA to LPA leads to the release of free CoA, which can be reacted with the thiol reagent, 5,5′-dithiobis(2-nitrobenzoic acid) (DTNB). The reaction between DTNB and the free sulfhydryl group from CoA generates a yellow-colored product, 3-carboxylato-4-nitrothiophenolate (CNP), that absorbs at 413 nm. LPAAT-β derived from Sf9 cell membrane overexpressing LPAAT-β were resuspended in HEPES saline buffer (20 mM HEPES pH 7.5, 150 mM NaCl), 1 mg/ml BSA and 72 μl aliquots were distributed into 96-well microtiter plates. 8 μl of compound of interest at 200 μM dissolved in 100% DMSO was added into each well. 20 μl of 1 mM 18:1-CoA and 1 mM sn-1-18: 1 lysoPA was then added to each well to initiate the reaction and allowed to run at room temperature for 25 min. 100 μl of 1 mM DTNB in 100% ethanol was then added to each well to quench the reaction and for color development. The absorbance at 405 nm, measured using a spectrophotometer plate reader, is proportional to the activity of LPAAT-β in the sample. This colorimetric assay was used for the high throughput screening of LPAAT inhibitors. […] Compounds that gave a reading of less than 0.06 arbitrary units (indicated by arrow on right margin) were selected for further study.

Q: Which IC50 does the source give for `CSc1nc(Nc2ccccc2)nc(Nc2ccc(Cl)cc2)n1` [CT-31888, N-(4-chlorophenyl)-6-methylsulfanyl-N′-phenyl-[1,3,5]triazine-2,4-diamine] here?
A: 3100 nM

Q: `Clc1nc(Nc2ccccc2)nc(Nc2ccc3c(c2)OCCO3)n1` [CT-32028, 6-chloro-N-(2,3-dihydrobenzo[1,4]dioxin-6-yl)-N′-phenyl-[1,3,5]triazine-2,4-diamine] was tested. Which IC50 did it give?
A: 200 nM

Q: `Clc1nc(Nc2ccccc2)nc(Nc2ccc3c(c2)CCC3)n1` [CT-32099, 6-chloro-N-indan-5-yl-N′-phenyl-[1,3,5]triazine-2,4-diamine] was tested. Which IC50 did it give?
A: 650 nM

Q: With `CCCNc1nc(Cl)nc(Nc2ccc(Cl)cc2)n1` [CT-116988, 6-chloro-N-2-(4-chlorophenyl)-N-4-propyl-[1,3,5]triazine-2,4-diamine] as the compound, how does the IC50 read?
A: 160 nM

Q: `Clc1nc(Nc2ccccc2)nc(Nc2ccc3c(c2)OCO3)n1` [CT-32042, N-benzo[1,3]dioxol-5-yl-6-chloro-N′-phenyl-[1,3,5]triazine-2,4-diamine] was tested. Which IC50 did it give?
A: 200 nM

Q: How did the IC50 turn out when `COc1ccc(Nc2nc(Cl)nc(Nc3ccc(Cl)cc3)n2)cc1` [CT-31867, 6-chloro-N-(4-chlorophenyl)-N′-(4-methoxy-phenyl)-[1,3,5]triazine-2,4-diamine] was run?
A: 750 nM

Q: `CCCNc1nc(Nc2ccc(Cl)cc2)nc(OC)n1` [CT-117147, N-(4-chlorophenyl)-6-methoxy-N′-propyl-[1,3,5]triazine-2,4-diamine] was tested. Which IC50 did it give?
A: 3800 nM

Q: `Clc1ccc(Nc2nc(Cl)nc(Nc3ccc4c(c3)OCO4)n2)cc1` [CT-31978, N-benzo[1,3]dioxol-5-yl-6-chloro-N′-(4-chlorophenyl)-[1,3,5]triazine-2,4-diamine] was tested. Which IC50 did it give?
A: 1000 nM

Q: For `COc1ccc(Nc2nc(Cl)nc(Nc3ccccc3)n2)cc1` [CT-31942, 6-chloro-N-(4-methoxyphenyl)-N′-phenyl-[1,3,5]triazine-2,4-diamine], which IC50 is on record?
A: 400 nM
